Test results: US9902740B2, “Macrocyclic benzodiazepine dimers, conjugates thereof, preparation and uses” (BRISTOL-MYERS SQUIBB COMPANY, priority 2015, dated 2018)
Read-outs that look alike come from different tables or passages of the source.

Columns and labels:
Format in all cases: cell-based
[1] = system: OVCAR3 human ovarian cancer cell line; test: Cytotoxic activity of dimers against OVCAR3 cells; details: for EC50: Table 5 comparative activities, OVCAR3
Excerpt: (§1) H226 is a human lung cancer cell line. N87 is a human gastric cancer cell line. OVCAR3 is a human ovarian cancer cell line. HCT116 is a human colon cancer cell line. HCT116/VM46 is a human colon cancer cell line that is multi-drug and paclitaxel resistant.

[2] = system: HCT116 human colon cancer cell line; test: Cytotoxic activity of dimers against HCT116 cells
Excerpt: as §1

[3] = system: HCT116/VM46 human colon cancer cell line (multi-drug and paclitaxel resistant); test: Cytotoxic activity of dimers against HCT116/VM46 cells
Excerpt: as §1

[4] = system: N87 human gastric cancer cell line; test: Cytotoxic activity of dimers against N87 cells; details: for IC50: read-out: Cell Line (IC50, nM) N87; for EC50: Table 5 comparative activities, N87
Excerpt: as §1

[5] = system: H226 human lung cancer cell line; test: Cytotoxic activity of dimers against H226 cells; details: for EC50: Table 5 comparative activities, H226
Excerpt: as §1

[6] = Table 4, OVCAR3 human ovarian cancer cell line, read-out: Cell Line (IC50, nM) OVCAR3
[7] = Table 4, N87 human gastric cancer cell line
[8] = Table 4, H226 human lung cancer cell line, read-out: Cell Line (IC50, nM) H226
[9] = Homo sapiens, OVCAR-3, read-out: Cell Line (IC50, nM) OVCAR3
[10] = Homo sapiens, HCT-116/VM46, Table 4
[11] = Homo sapiens, NCI-H226, read-out: Cell Line (IC50, nM) H226

Structure (SMILES)	IC50 [1, 6]	IC50 ([2]; Table 4)	IC50 ([3]; Table 4)	IC50 [4, 7]	IC50 [5, 8]	EC50 [1]	EC50 [4]	EC50 [5]	IC50 [1, 9]	IC50 ([2]; HCT-116, Table 4)	IC50 [3, 10]	IC50 ([4]; Homo sapiens)	IC50 [5, 11]
O=C1c2cc3c(cc2N=C[C@@H]2Cc4ccccc4CN12)OCCCOc1cc2c(cc1OCCCCNCCCCO3)C(=O)N1Cc3ccccc3C[C@H]1C=N2 [IIb-5]	0.6 nM	0.077 nM	7.3 nM	0.35 nM	0.45 nM								
CN1CCN(c2ccc(C3=CN4C(=O)c5cc6c(cc5N=C[C@@H]4C3)OCCCOc3cc4c(cc3OCCCCCCCCO6)C(=O)N3C=C(c5ccc(N)cc5)C[C@H]3C=N4)cc2)CC1 [IIc-10]	0.36 nM	0.022 nM	0.071 nM	0.36 nM	0.044 nM								
CN1CCN(c2ccc(C3=CN4C(=O)c5cc6c(cc5N=C[C@@H]4C3)OCCCOc3cc4c(cc3OCCCCCCCCO6)C(=O)N3C=C(c5ccc(N6CCN(C)CC6)cc5)C[C@H]3C=N4)cc2)CC1 [IIc-8]	0.35 nM	0.006 nM	0.076 nM	0.034 nM	0.047 nM								
O=C1c2cc3c(cc2N=C[C@@H]2CCCN12)OCCCCCOc1cc2c(cc1OCCCCCCCCCCCO3)C(=O)N1CCC[C@H]1C=N2 [IIa-7]	14 nM			87 nM	12 nM	14 nM	87 nM	12 nM					
O=C1c2cc3c(cc2N=C[C@@H]2CC(c4ccccc4)=CN12)OCCCOc1cc2c(cc1OCCOCCOCCO3)C(=O)N1C=C(c3ccccc3)C[C@H]1C=N2 [IIc-6]	1.7 nM	0.13 nM	6.4 nM	1.5 nM	1.1 nM								
O=C1c2cc3c(cc2N=C[C@@H]2CCCN12)OCCCOc1cc2c(cc1OCCCCCCCO3)C(=O)N1CCC[C@H]1C=N2 [IIa-1]	3.4 nM		74 nM	4.6 nM	8.1 nM	3.4 nM	4.6 nM	8.1 nM					
O=C1c2cc3c(cc2N=C[C@@H]2Cc4ccccc4N12)OCCCOc1cc2c(cc1OCCCCCCCCCCO3)C(=O)N1c3ccccc3C[C@H]1C=N2 [IIb-3]	3.5 nM		13 nM	11 nM	5.9 nM								
C=C1C[C@H]2C=Nc3cc4c(cc3C(=O)N2C1)OCCCCCCCCOc1cc2c(cc1OCCCO4)N=C[C@@H]1CC(=C)CN1C2=O [IIa-12]	0.52 nM		4.8 nM	0.89 nM	0.32 nM								
CN1CCN(c2ccc(C3=CN4C(=O)c5cc6c(cc5N=C[C@@H]4C3)OCCCOc3cc4c(cc3OCCCCCCCCO6)C(=O)N3C=C(c5ccc(N6CCNCC6)cc5)C[C@H]3C=N4)cc2)CC1 [IIc-9]									1 nM	0.063 nM	0.16 nM	0.68 nM	0.33 nM
O=C1c2cc3c(cc2N=C[C@@H]2Cc4ccccc4CN12)OCCCOc1cc2c(cc1OCCCCCCCCCCO3)C(=O)N1Cc3ccccc3C[C@H]1C=N2 [IIb-2]	1.3 nM		17 nM	2.5 nM	3 nM								
COc1ccc(C2=CN3C(=O)c4cc5c(cc4N=C[C@@H]3C2)OCCCOc2cc3c(cc2OCCCCCCCCO5)C(=O)N2C=C(c4ccc(N)cc4)C[C@H]2C=N3)cc1 [IIc-11]									0.31 nM	0.063 nM	0.36 nM	0.56 nM	0.36 nM
O=C1c2cc3c(cc2N=C[C@@H]2Cc4ccccc4CN12)OCCCOc1cc2c(cc1OCCOCCOCCO3)C(=O)N1Cc3ccccc3C[C@H]1C=N2 [IIb-4]	0.2 nM	0.068 nM	2 nM	0.14 nM	0.15 nM								
O=C1c2cc3c(cc2N=C[C@@H]2CCCN12)OCCCOc1cc2c(cc1OCCCC/C=C/CCCCO3)C(=O)N1CCC[C@H]1C=N2 [IIa-9]	12 nM			13 nM	12 nM	12 nM	13 nM	12 nM					
COc1ccc(C2=CN3C(=O)c4cc5c(cc4N=C[C@@H]3C2)OCCCOc2cc3c(cc2OCCCCCCCCO5)C(=O)N2C=C(c4ccc(OC)cc4)C[C@H]2C=N3)cc1 [IIc-7]	1.8 nM	0.17 nM	1.1 nM	0.62 nM	0.99 nM								
C=C1C[C@H]2C=Nc3cc4c(cc3C(=O)N2C1)OCCOCCOCCOc1cc2c(cc1OCCCO4)N=C[C@@H]1CC(=C)CN1C2=O [IIa-13]	20 nM	32 nM	85 nM	40 nM	29 nM								
O=C1c2cc3c(cc2N=C[C@@H]2CCCN12)OCCCOc1cc2c(cc1OCCCCCCCCO3)C(=O)N1CCC[C@H]1C=N2 [IIa-2]	1.2 nM			2.7 nM	1.6 nM	1.2 nM	2.7 nM	1.6 nM					
